“And” between values parts separate entries of the source, which are not always exact repeats. Identical values can stand only once. Toxic doses and inconclusive results are not listed. Cut-off read from the data, not from the text of the source: active = T/C of 150% or more; inactive = T/C below 125%.
System: L1210 leukemia ip in BDF1 mice, survival T/C
Experiment: NCI In Vivo Anticancer Drug Screen. Data for tumor model L1210 Leukemia (intraperitoneal) in B6D2F1 (BDF1) mice
Conditions: endpoint: mean survival time, higher = longer survival
Method in brief: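 Each compound was tested against a transplantable tumor grown in mice. The endpoint was survival, with treated animals benchmarked against vehicle controls as a simple ratio.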

[1] = dose: 100.0 mg/kg/injection, schedule: Q01DX009 (ip), vehicle: Klucel (hydroxypropylcellulose) (HPC)
[2] = dose: 100.0 mg/kg/injection, schedule: Q04DX003 (ip), vehicle: Klucel (hydroxypropylcellulose) (HPC)
[3] = dose: 200.0 mg/kg/injection, schedule: Q01DX009 (ip), vehicle: Klucel (hydroxypropylcellulose) (HPC)
[4] = dose: 200.0 mg/kg/injection, schedule: Q04DX003 (ip), vehicle: Klucel (hydroxypropylcellulose) (HPC)
[5] = dose: 400.0 mg/kg/injection, schedule: Q01DX009 (ip), vehicle: Klucel (hydroxypropylcellulose) (HPC)
[6] = dose: 400.0 mg/kg/injection, schedule: Q04DX003 (ip), vehicle: Klucel (hydroxypropylcellulose) (HPC)
[7] = dose: 100.0 mg/kg/injection, schedule: Q04DX003 (ip), vehicle: other
[8] = dose: 200.0 mg/kg/injection, schedule: Q04DX003 (ip), vehicle: other
[9] = dose: 400.0 mg/kg/injection, schedule: Q04DX003 (ip), vehicle: other
[10] = dose: 75.0 mg/kg/injection, schedule: Q01DX001 (ip), vehicle: saline
[11] = dose: 150.0 mg/kg/injection, schedule: Q01DX001 (ip), vehicle: saline
[12] = dose: 300.0 mg/kg/injection, schedule: Q01DX001 (ip), vehicle: saline
[13] = dose: 100.0 mg/kg/injection, schedule: Q01DX001 (ip), vehicle: saline
[14] = dose: 200.0 mg/kg/injection, schedule: Q01DX001 (ip), vehicle: saline
[15] = dose: 400.0 mg/kg/injection, schedule: Q01DX001 (ip), vehicle: saline

Measured: T/C

Cc1ccc(-c2csc(NC(=O)CC(=O)N/N=C/c3ccc(N(CCCl)CCCl)cc3C)n2)cc1
inactive: dose: 100.0 mg/kg/injection, schedule: Q01DX001 (ip), vehicle: carboxymethylcellulose (CMC) 112 % of control | dose: 200.0 mg/kg/injection, schedule: Q01DX001 (ip), vehicle: carboxymethylcellulose (CMC) 88 % of control | dose: 400.0 mg/kg/injection, schedule: Q01DX001 (ip), vehicle: carboxymethylcellulose (CMC) 93 % of control

NC(=O)C(O)C(O)C(O)C(O)CO (configuration not stated)
inactive: dose: 100.0 mg/kg/injection, schedule: Q04DX002 (ip), vehicle: saline 91 % of control and 99 % of control | dose: 200.0 mg/kg/injection, schedule: Q04DX002 (ip), vehicle: saline 95 % of control and 96 % of control | dose: 400.0 mg/kg/injection, schedule: Q04DX002 (ip), vehicle: saline 95 % of control and 105 % of control

O=C(c1ccc([N+](=O)[O-])cc1)c1ccccn1
inactive: [1] 103 % of control | [2] 101 % of control | [3] 102 % of control | [4] 93 % of control | [5] 115 % of control | [6] 92 % of control

NNC(=O)CCC(N)C(=O)O (configuration not stated)
inactive: dose: 10.77 mg/kg/injection, schedule: Q01DX Z (ip), vehicle: carboxymethylcellulose (CMC) 94 % of control | dose: 21.53 mg/kg/injection, schedule: Q01DX Z (ip), vehicle: carboxymethylcellulose (CMC) 95 % of control | dose: 43.05 mg/kg/injection, schedule: Q01DX Z (ip), vehicle: carboxymethylcellulose (CMC) 104 % of control | dose: 86.1 mg/kg/injection, schedule: Q01DX Z (ip), vehicle: carboxymethylcellulose (CMC) 111 % of control and 124 % of control

CC(C)(C)c1ccccc1C(N)=O
inactive: [7] 101 % of control | [8] 109 % of control | [9] 91 % of control

Nc1nc2nc(N=Nc3ccc(S(=O)(=O)N(CCCl)CCCl)cc3)[nH]c2c(=O)[nH]1
inactive: [2] 93 % of control | [4] 87 % of control | [6] 96 % of control

COc1ccc(C(O)c2nnc(-c3ccccc3)nn2)cc1 (configuration not stated)
inactive: dose: 100.0 mg/kg/injection, schedule: Q01DX001 (ip), vehicle: gum acacia 90 % of control | dose: 200.0 mg/kg/injection, schedule: Q01DX001 (ip), vehicle: gum acacia 120 % of control | dose: 400.0 mg/kg/injection, schedule: Q01DX001 (ip), vehicle: gum acacia 107 % of control

O=C(O)c1cccc(F)c1C(=O)c1ccc2ccccc2c1 (tested in a mixture with another compound)
inactive: [2] 105 % of control | [4] 86 % of control

CSc1nnnn1-c1ccccc1
inactive: dose: 100.0 mg/kg/injection, schedule: Q04DX003 (ip), vehicle: acetone 100 % of control | dose: 100.0 mg/kg/injection, schedule: Q04DX003 (ip), vehicle: saline with Tween-80 102 % of control | dose: 200.0 mg/kg/injection, schedule: Q04DX003 (ip), vehicle: saline with Tween-80 100 % of control | dose: 400.0 mg/kg/injection, schedule: Q04DX003 (ip), vehicle: acetone 100 % of control

O=C(O)C1Cc2ccccc2-c2ccccc21 (configuration not stated)
inactive: [10] 102 % of control | [11] 88 % of control | [12] 100 % of control

NP(=O)(OCCCOCc1ccccc1)N(CCCl)CCCl (configuration not stated)
inactive: dose: 125.0 mg/kg/injection, schedule: Q01DX001 (ip), vehicle: saline 103 % of control | dose: 250.0 mg/kg/injection, schedule: Q01DX001 (ip), vehicle: saline 108 % of control | dose: 500.0 mg/kg/injection, schedule: Q01DX001 (ip), vehicle: saline 100 % of control

CS(=O)c1ccc([N+](=O)[O-])cc1 (configuration not stated)
inactive: [2] 98 % of control | [4] 104 % of control | [6] 105 % of control

CCCCCCNC(=O)Nc1ccccc1Cl
inactive: [1] 97 % of control | [3] 100 % of control | [5] 105 % of control

Cc1cccc(C)c1NC(=O)Oc1ccc(F)cc1Cl
inactive: [1] 110 % of control | [3] 97 % of control

CCOC(=O)C(I)CC (configuration not stated)
inactive: dose: 25.0 mg/kg/injection, schedule: Q01DX009 (ip), vehicle: water 107 % of control | dose: 50.0 mg/kg/injection, schedule: Q01DX009 (ip), vehicle: water 93 % of control | dose: 100.0 mg/kg/injection, schedule: Q01DX009 (ip), vehicle: water 87 % of control

CCCCC1CN=C(c2ccc(NC(=O)c3ccc(C(=O)Nc4ccc(C5=NCC(CCCC)CN5)cc4)c(Cl)c3)cc2)NC1 (configuration not stated)
inactive: dose: 5.0 mg/kg/injection, schedule: Q01DX015 (ip), vehicle: methylcellulose (MC) 109 % of control | dose: 22.5 mg/kg/injection, schedule: Q01DX015 (ip), vehicle: methylcellulose (MC) 123 % of control | dose: 45.0 mg/kg/injection, schedule: Q01DX015 (ip), vehicle: methylcellulose (MC) 111 % of control | dose: 62.0 mg/kg/injection, schedule: Q01DX015 (ip), vehicle: methylcellulose (MC) 109 % of control

CC1CC(C)OP(Oc2ccccc2)O1 (configuration not stated)
inactive: [13] 110 % of control | [14] 96 % of control | [15] 98 % of control

C1CC2CCCC3C4CCCC5CCCC(C(C1)C23)C54 (configuration not stated)
inactive: [13] 94 % of control | [14] 100 % of control | [15] 97 % of control

CC/C(C)=C\CC/C(C)=C\COc1ccccc1[N+](=O)[O-]
inactive: dose: 100.0 mg/kg/injection, schedule: Q01DX009 (ip), vehicle: carboxymethylcellulose (CMC) 100 % of control | dose: 200.0 mg/kg/injection, schedule: Q01DX009 (ip), vehicle: carboxymethylcellulose (CMC) 100 % of control | dose: 400.0 mg/kg/injection, schedule: Q01DX009 (ip), vehicle: carboxymethylcellulose (CMC) 98 % of control

CCOC(=O)C(O)(O)C(C)C
inactive: [13] 113 % of control | [15] 113 % of control

CC1=CC=CC(C)(C)CC1=O
inactive: [7] 102 % of control | [8] 91 % of control | [9] 95 % of control

C=CC1CN2CCC1CC2C(O)c1ccnc2ccc(OC)cc12 (configuration not stated)
inactive: dose: 27.45 mg/kg/injection, schedule: Q01DX Z (ip), vehicle: other 92 % of control | dose: 54.9 mg/kg/injection, schedule: Q01DX Z (ip), vehicle: other 92 % of control | dose: 75.0 mg/kg/injection, schedule: Q01DX009 (ip), vehicle: saline with Tween-80 92 % of control | dose: 109.8 mg/kg/injection, schedule: Q01DX Z (ip), vehicle: other 94 % of control | [14] 101 % of control

COc1ccc(OC)c(NC(=S)N/N=C(\C)c2cc(Cl)ccc2O)c1
inactive: dose: 12.5 mg/kg/injection, schedule: Q04DX002 (ip), vehicle: Klucel (hydroxypropylcellulose) (HPC) 102 % of control | dose: 25.0 mg/kg/injection, schedule: Q04DX002 (ip), vehicle: Klucel (hydroxypropylcellulose) (HPC) 102 % of control | dose: 50.0 mg/kg/injection, schedule: Q04DX002 (ip), vehicle: Klucel (hydroxypropylcellulose) (HPC) 118 % of control

O=C1C(n2ccc(=O)[nH]c2=O)CCN1CCOCc1ccccc1 (configuration not stated)
inactive: [1] 105 % of control | [3] 105 % of control | [5] 100 % of control

CCCCCCCCCCCCCCCCN(C)S(=O)(=O)c1ccc(Cl)c(C(F)(F)F)c1
inactive: [2] 98 % of control | [4] 101 % of control | [6] 96 % of control

CCOc1nc(OCC)c2[nH]cnc2n1
inactive: [13] 101 % of control | [14] 96 % of control | [15] 102 % of control

NC(=O)c1ccccc1I
inactive: [10] 101 % of control | dose: 75.0 mg/kg/injection, schedule: Q01DX009 (ip), vehicle: saline 103 % of control | [11] 96 % of control | dose: 150.0 mg/kg/injection, schedule: Q01DX009 (ip), vehicle: saline 86 % of control | [12] 96 % of control | dose: 300.0 mg/kg/injection, schedule: Q01DX009 (ip), vehicle: saline 100 % of control

Cc1ccc(C(=O)Oc2ccc(Cl)c(C)c2Cl)cc1
inactive: dose: 75.0 mg/kg/injection, schedule: Q01DX001 (ip), vehicle: carboxymethylcellulose (CMC) 91 % of control | dose: 150.0 mg/kg/injection, schedule: Q01DX001 (ip), vehicle: carboxymethylcellulose (CMC) 92 % of control | dose: 300.0 mg/kg/injection, schedule: Q01DX001 (ip), vehicle: carboxymethylcellulose (CMC) 92 % of control

CC12COC(=O)CC1CCC1C2CCC2(C)C1CCC2(C)O (configuration not stated)
inactive: dose: 50.0 mg/kg/injection, schedule: Q01DX009 (ip), vehicle: saline with Tween-80 96 % of control | [13] 93 % of control | dose: 100.0 mg/kg/injection, schedule: Q01DX009 (ip), vehicle: saline with Tween-80 91 % of control | [14] 90 % of control | dose: 200.0 mg/kg/injection, schedule: Q01DX009 (ip), vehicle: saline with Tween-80 101 % of control

From PubChem BioAssay AID248 (DTP/NCI, 2004)
